According to US7829754B2, “Method of cleaning heavy metals-containing soil” (Chubu Electric Power Co., Inc., priority 2004, dated 2010):
Like-named read-outs stand apart in the source and are kept apart here.

Key:
[1] = tested on: Fagopyrum esculentum; settings: for Leaf dry weight / Stem dry weight / Stem lead concentration / Terrestrial dry weight / Terrestrial part lead accumulation amount / Terrestrial part lead concentration / Terrestrial lead accumulated amount, fold of EDTA-2Na at the same concentration / Terrestrial lead accumulated amount, fold of contrast section: soil B; for Leaf lead concentration: soil B (lead 13032 mg/kg), added one week before harvesting; for addition effect on lead concentration in stems / addition effect on lead concentration in leaves: 10, 20 mmol/kg soil; for addition effect on lead concentration in stems: contrast section 2043 mg/kg; for addition effect on lead concentration in leaves: contrast section 7971 mg/kg
Experimental: A lead concentration in a soil or a plant body was analyzed using ICP-AES (inductively coupled plasma-atomic emission spectrometry) regarding a sample obtained by adding nitric acid and degrading this with a microwave.
A cultivating experiment was conducted as follows: in which Fagopyrum esculentum and Brassica juncca were cultivated in a lead-containing soil filled in a Wagnel pot, a chelating agent was further added to the soil, and a difference in a lead accumulating amount depending on the cultivating condition was examined.
In addition, considering influence on plants and environment such as a salt concentration damage, 1, 5, 10 and 20 mmol kg^−1 soil of chemical reagents were adopted as an addition concentration, and 300 ml/pot (soil 3 kg) was provided as an addition amount.
1) Test plant: Fagopyrum esculentum, trade name (Milkyway), Brassica juncea
2) Test soil: Soil B (sampled from an old firing range site, soil lead concentration 13032 mg/kg), contrast sample (mountain sand in Gifu Prefecture of Japan, soil lead concentration 21 mg/kg)

[2] = assay type: physicochemical
Experimental: <Experiment 1. Test of Comparing Lead Dissolving Out Ability of Chelating Agent>
In order to study a kind of a chelating agent to be added to a contaminated soil, the lead dissolving out abilities of 26 types of chelating agents (chelate reagents) were compared (FIG. 2).
2) Chelating agent: Each chelating agent of 100 mmol·dm^−3 and pH 5.8 was prepared.
3) Five grams of 1) the subject soil and 50 ml of 2) the chelating agent were put into to a 100 ml vessel, and shaken (200 times/min) at 20° C. for 6 hours. Repeated cycle was 3.
4) For comparison, a contrast section was prepared, in which desalted water was added instead of the chelating agent in the 3).
5) After shaking, the sample after filtration was centrifuged at 15000 rpm for 5 minutes, and the supernatant liquid was further centrifuged again under the same condition.
6) From the separated supernatant liquid, a lead concentration was measured with an inductively coupled high frequency plasma spectrometry (ICP) device.

[3] = tested on: Fagopyrum esculentum; assay: Fagopyrum esculentum growth situation after addition of chelating agent
Experimental: 3) The soil B (3 kg) and the contrast section soil (4.3 kg) which had been passed through a sieve (2 mm) were mixed with urea (N: 69 mg/kg soil), calcium superphosphate (P: 75 mg/kg soil), potassium chloride (K: 72 mg/kg soil), and magnesia lime (Mg: 67 mg/kg soil), and sufficiently stirred. 4) The test soil was filled into a Wagnel pot (1/5000a), and a plant was seeded (3 pits/pot, 3 grains/pit). 5) Four to five days after germination, the plant was thinned out to 3 individuals/pot. 6) Cultivation in a gross chamber (Environmental Condition) Temperature: 25° C.×12 h (8:00-20:00), 20° C.×12 h (20:00-8:00) Humidity: 60% Illumination: light condition (8:00-20:00), dark condition (20:00-8:00) Illuminance: 98001×, 180μ mmol˜m^−2·s^−1 7) Aspersion was performed at 100 ml/pot every day. 8) During a test term, a position of a pot was changed four times. 9) Individuals which were about to fall were induced by a support post. 10) One week before harvesting, a chelating agent at each concentration was added to the soil B. An addition amount was 300 ml/pot, and the chelating agent was carefully added to a surface of the soil so that the chelating agent was not contacted with the plant. On the day before addition of the chelating agent and on the day of addition, aspersion was not performed. […] 12) Repeated cycles in all sections were 3 (3 pots/test section).

[4] = chelating agent 10 mmol/kg soil
[5] = chelating agent 20 mmol/kg soil
[6] = per unit area, calculated, chelating agent 1 mmol/kg soil
[7] = per unit area, calculated, chelating agent 5 mmol/kg soil
[8] = per unit area, calculated, chelating agent 10 mmol/kg soil
[9] = per unit area, calculated, chelating agent 20 mmol/kg soil
[10] = chelating agent 100 mmol·dm^−3, pH 5.8, Soil A, shaken at 20° C. for 6 hours, FIG. 2
[11] = four days after addition, 1 mmol/kg soil
[12] = four days after addition, 5 mmol/kg soil
[13] = four days after addition, 10 mmol/kg soil
[14] = four days after addition, 20 mmol/kg soil
[15] = two days after addition, 20 mmol/kg soil

Molecule: O=C([O-])CC(O)(CC(=O)[O-])C(=O)[O-].[Na+].[Na+].[Na+] [Sodium citrate, sodium citrate]
- Leaf dry weight ([1]; chelating agent 1 mmol/kg soil): 0.9090 g/plant
- Stem dry weight ([1]; chelating agent 1 mmol/kg soil): 1.9892 g/plant
- Stem lead concentration ([1]; chelating agent 1 mmol/kg soil): 1815 mg/kg
- Terrestrial dry weight ([1]; chelating agent 1 mmol/kg soil): 2.8982 g/plant
- Terrestrial part lead accumulation amount ([1]; chelating agent 1 mmol/kg soil): 0.0121 g/plant
- Terrestrial part lead concentration ([1]; chelating agent 1 mmol/kg soil): 4169 mg/kg
- Leaf lead concentration ([1]; chelating agent 1 mmol/kg soil): 9320 mg/kg
- Leaf dry weight ([1]; chelating agent 5 mmol/kg soil): 1.0308 g/plant
- Stem dry weight ([1]; chelating agent 5 mmol/kg soil): 1.6837 g/plant
- Stem lead concentration ([1]; chelating agent 5 mmol/kg soil): 1671 mg/kg
- Terrestrial dry weight ([1]; chelating agent 5 mmol/kg soil): 2.7145 g/plant
- Terrestrial part lead accumulation amount ([1]; chelating agent 5 mmol/kg soil): 0.0101 g/plant
- Terrestrial part lead concentration ([1]; chelating agent 5 mmol/kg soil): 3732 mg/kg
- Leaf lead concentration ([1]; chelating agent 5 mmol/kg soil): 7099 mg/kg
- Leaf dry weight [1, 4]: 0.7356 g/plant
- Stem dry weight [1, 4]: 1.7669 g/plant
- Stem lead concentration [1, 4]: 1524 mg/kg
- Terrestrial dry weight [1, 4]: 2.5025 g/plant
- Terrestrial part lead accumulation amount [1, 4]: 0.0080 g/plant
- Terrestrial part lead concentration [1, 4]: 3191 mg/kg
- Leaf lead concentration [1, 4]: 7195 mg/kg
- Leaf dry weight [1, 5]: 0.8797 g/plant
- Stem dry weight [1, 5]: 1.9099 g/plant
- Stem lead concentration [1, 5]: 2286 mg/kg
- Terrestrial dry weight [1, 5]: 2.7896 g/plant
- Terrestrial part lead accumulation amount [1, 5]: 0.0134 g/plant
- Terrestrial part lead concentration [1, 5]: 4806 mg/kg
- Leaf lead concentration [1, 5]: 10270 mg/kg
- Terrestrial part lead accumulation amount [1, 6]: 1.82 g/m^2
- Terrestrial part lead accumulation amount [1, 7]: 1.52 g/m^2
- Terrestrial part lead accumulation amount [1, 8]: 1.20 g/m^2
- Terrestrial part lead accumulation amount [1, 9]: 2.01 g/m^2
- lead dissolving out ability [2, 10]: not so much higher than the aforementioned biodegradable chelating agents
- lead dissolving out ability ([2]; pH 5.8): high lead dissolving out ability
- Discoloration of leaf (number of individuals for which symptom was observed) [3, 11]: 5
- Discoloration of leaf (number of individuals for which symptom was observed) [3, 12]: 2
- Discoloration of leaf (number of individuals for which symptom was observed) [3, 13]: 4
- Leaf drop (number of individuals for which symptom was observed) [3, 13]: 2
- Wilting of leaf (number of individuals for which symptom was observed) [3, 13]: 4
- Discoloration of leaf (number of individuals for which symptom was observed) [3, 14]: 5
- Wilting of leaf (number of individuals for which symptom was observed) [3, 14]: 6

Molecule: O=C(O)CC(O)(CC(=O)O)C(=O)O [citric acid]
- lead dissolving out ability ([2]; pH 5.8): high lead dissolving out ability

Molecule: disodium ethylenediamine tetraacetate [EDTA · 2Na, reference compound]
- addition effect on lead concentration in stems [1]: high addition effect
- addition effect on lead concentration in leaves [1]: high addition effect
- Leaf dry weight ([1]; chelating agent 1 mmol/kg soil): 0.9799 g/plant
- Stem dry weight ([1]; chelating agent 1 mmol/kg soil): 1.7240 g/plant
- Stem lead concentration ([1]; chelating agent 1 mmol/kg soil): 1791 mg/kg
- Terrestrial dry weight ([1]; chelating agent 1 mmol/kg soil): 2.7039 g/plant
- Terrestrial part lead accumulation amount ([1]; chelating agent 1 mmol/kg soil): 0.0106 g/plant
- Terrestrial part lead concentration ([1]; chelating agent 1 mmol/kg soil): 3926 mg/kg
- Leaf lead concentration ([1]; chelating agent 1 mmol/kg soil): 7683 mg/kg
- Leaf dry weight ([1]; chelating agent 5 mmol/kg soil): 1.0307 g/plant
- Stem dry weight ([1]; chelating agent 5 mmol/kg soil): 2.0750 g/plant
- Stem lead concentration ([1]; chelating agent 5 mmol/kg soil): 2288 mg/kg
- Terrestrial dry weight ([1]; chelating agent 5 mmol/kg soil): 3.1057 g/plant
- Terrestrial part lead accumulation amount ([1]; chelating agent 5 mmol/kg soil): 0.0157 g/plant
- Terrestrial part lead concentration ([1]; chelating agent 5 mmol/kg soil): 5045 mg/kg
- Leaf lead concentration ([1]; chelating agent 5 mmol/kg soil): 10595 mg/kg
- Leaf dry weight [1, 4]: 0.9617 g/plant
- Stem dry weight [1, 4]: 1.8899 g/plant
- Stem lead concentration [1, 4]: 3376 mg/kg
- Terrestrial dry weight [1, 4]: 2.8516 g/plant
- Terrestrial part lead accumulation amount [1, 4]: 0.0244 g/plant
- Terrestrial part lead concentration [1, 4]: 8564 mg/kg
- Leaf lead concentration [1, 4]: 18758 mg/kg
- Leaf dry weight [1, 5]: 0.6389 g/plant
- Stem dry weight [1, 5]: 1.4969 g/plant
- Stem lead concentration [1, 5]: 8947 mg/kg
- Terrestrial dry weight [1, 5]: 2.1358 g/plant
- Terrestrial part lead accumulation amount [1, 5]: 0.0328 g/plant
- Terrestrial part lead concentration [1, 5]: 15335 mg/kg
- Leaf lead concentration [1, 5]: 30303 mg/kg
- Terrestrial part lead accumulation amount [1, 6]: 1.59 g/m^2
- Terrestrial part lead accumulation amount [1, 7]: 2.36 g/m^2
- Terrestrial part lead accumulation amount [1, 8]: 3.66 g/m^2
- Terrestrial part lead accumulation amount [1, 9]: 4.92 g/m^2
- lead dissolving out ability [2, 10]: high lead dissolving out ability
- Discoloration of leaf (number of individuals for which symptom was observed) [3, 11]: 3
- Discoloration of leaf (number of individuals for which symptom was observed) [3, 12]: 4
- Leaf drop (number of individuals for which symptom was observed) [3, 12]: 1
- Wilting of leaf (number of individuals for which symptom was observed) [3, 12]: 1
- Discoloration of leaf (number of individuals for which symptom was observed) [3, 13]: 6
- Wilting of leaf (number of individuals for which symptom was observed) [3, 13]: 2
- Discoloration of flower (number of individuals for which symptom was observed) [3, 14]: 9
- Discoloration of leaf (number of individuals for which symptom was observed) [3, 14]: 9
- Leaf drop (number of individuals for which symptom was observed) [3, 14]: 2
- Wilting of leaf (number of individuals for which symptom was observed) [3, 14]: 9
- yellow leaves, spotting and discoloration of leaves, and discoloration of a flower [3, 14]: confirmed in all individuals
- discoloration of leaves [3, 15]: discoloration of leaves was observed

Molecule: tetrasodium L-glutamic acid diacetate [GLDA·4Na]
- lead dissolving out ability [2, 10]: high lead dissolving out ability

Molecule: N[C@@H](CS)C(=O)O [L-cysteine]
- lead dissolving out ability [2, 10]: high lead dissolving out ability

Molecule: CC(C(=O)[O-])N(CC(=O)[O-])CC(=O)[O-].[Na+].[Na+].[Na+] (stereo not shown) [MGDA · 3Na, trisodium methylglycine diacetate]
- Terrestrial lead accumulated amount, fold of EDTA-2Na at the same concentration ([1]; 10 mmol/kg soil): 1.6 fold
- Terrestrial lead accumulated amount, fold of contrast section ([1]; 10 mmol/kg soil): 3.4 fold
- Terrestrial lead accumulated amount, fold of EDTA-2Na at the same concentration ([1]; 20 mmol/kg soil): 1.3 fold
- Terrestrial lead accumulated amount, fold of contrast section ([1]; 20 mmol/kg soil): 3.7 fold
- addition effect on lead concentration in stems [1]: high addition effect
- addition effect on lead concentration in leaves [1]: high addition effect
- Leaf dry weight ([1]; chelating agent 1 mmol/kg soil): 0.9422 g/plant
- Stem dry weight ([1]; chelating agent 1 mmol/kg soil): 1.9496 g/plant
- Stem lead concentration ([1]; chelating agent 1 mmol/kg soil): 2310 mg/kg
- Terrestrial dry weight ([1]; chelating agent 1 mmol/kg soil): 2.8918 g/plant
- Terrestrial part lead accumulation amount ([1]; chelating agent 1 mmol/kg soil): 0.0130 g/plant
- Terrestrial part lead concentration ([1]; chelating agent 1 mmol/kg soil): 4484 mg/kg
- Leaf lead concentration ([1]; chelating agent 1 mmol/kg soil): 8981 mg/kg
- Leaf dry weight ([1]; chelating agent 5 mmol/kg soil): 0.8863 g/plant
- Stem dry weight ([1]; chelating agent 5 mmol/kg soil): 1.8543 g/plant
- Stem lead concentration ([1]; chelating agent 5 mmol/kg soil): 2384 mg/kg
- Terrestrial dry weight ([1]; chelating agent 5 mmol/kg soil): 2.7406 g/plant
- Terrestrial part lead accumulation amount ([1]; chelating agent 5 mmol/kg soil): 0.0156 g/plant
- Terrestrial part lead concentration ([1]; chelating agent 5 mmol/kg soil): 5690 mg/kg
- Leaf lead concentration ([1]; chelating agent 5 mmol/kg soil): 12607 mg/kg
- Leaf dry weight [1, 4]: 0.7343 g/plant
- Stem dry weight [1, 4]: 1.5023 g/plant
- Stem lead concentration [1, 4]: 10098 mg/kg
- Terrestrial dry weight [1, 4]: 2.2366 g/plant
- Terrestrial part lead accumulation amount [1, 4]: 0.0399 g/plant
- Terrestrial part lead concentration [1, 4]: 17858 mg/kg
- Leaf lead concentration [1, 4]: 33735 mg/kg
- Leaf dry weight [1, 5]: 0.5582 g/plant
- Stem dry weight [1, 5]: 1.3716 g/plant
- Stem lead concentration [1, 5]: 16437 mg/kg
- Terrestrial dry weight [1, 5]: 1.9298 g/plant
- Terrestrial part lead accumulation amount [1, 5]: 0.0441 g/plant
- Terrestrial part lead concentration [1, 5]: 22848 mg/kg
- Leaf lead concentration [1, 5]: 38601 mg/kg
- Terrestrial part lead accumulation amount [1, 6]: 1.95 g/m^2
- Terrestrial part lead accumulation amount [1, 7]: 2.34 g/m^2
- Terrestrial part lead accumulation amount [1, 8]: 5.99 g/m^2
- Terrestrial part lead accumulation amount [1, 9]: 6.62 g/m^2
- lead dissolving out ability [2, 10]: high lead dissolving out ability
- Discoloration of leaf (number of individuals for which symptom was observed) [3, 11]: 3
- Leaf drop (number of individuals for which symptom was observed) [3, 11]: 1
- Wilting of leaf (number of individuals for which symptom was observed) [3, 11]: 1
- Discoloration of leaf (number of individuals for which symptom was observed) [3, 12]: 3
- Wilting of leaf (number of individuals for which symptom was observed) [3, 12]: 1
- Discoloration of flower (number of individuals for which symptom was observed) [3, 13]: 5
- Discoloration of leaf (number of individuals for which symptom was observed) [3, 13]: 2
- Leaf drop (number of individuals for which symptom was observed) [3, 13]: 2
- Wilting of leaf (number of individuals for which symptom was observed) [3, 13]: 6
- Discoloration of flower (number of individuals for which symptom was observed) [3, 14]: 9
- Discoloration of leaf (number of individuals for which symptom was observed) [3, 14]: 9
- Leaf drop (number of individuals for which symptom was observed) [3, 14]: 7
- Wilting of leaf (number of individuals for which symptom was observed) [3, 14]: 9
- yellow leaves, spotting and discoloration of leaves, and discoloration of a flower [3, 14]: confirmed in all individuals
- leaf drop ([3]; four days after addition, 20 mmol/kg soil, in words): observed in almost all individuals
- discoloration of leaves [3, 15]: discoloration of leaves was observed
- leaf drop [3, 15]: confirmed partially

Molecule: O=C([O-])CC(NCCNC(CC(=O)O)C(=O)[O-])C(=O)[O-].[Na+].[Na+].[Na+] (stereo not shown) [EDDS·3Na, disodium ethylenediamine succinate]
- lead dissolving out ability ([2]; pH 5.8): high lead dissolving out ability
